Experimental data reported in patent US8785473B2, “Plasminogen activator inhibitor-1 inhibitor” (Renascience Co., Ltd., priority 2009, dated 2014).
Marks after values point to notes of the source that are not given here.

Assays:
[1] = test system: rat model of ferric chloride-induced thrombosis; experiment: Test Example 3: antithrombotic effect confirmation test in a rat model of ferric chloride-induced thrombosis; type: in vivo; conditions: SD rats, 0.3 mg/kg or 1 mg/kg orally 2 hours before operation, compared to the vehicle group (FIG. 1)
Text: The antithrombotic effect of each of compounds (4), (13), (68), and (79) prepared in Examples 4, 13, 68, and 79 (hereinafter referred to as a test compound) was confirmed using a rat model of ferric chloride-induced thrombosis.
Male 9-week-old SD rats (Japan SLC) were used, and divided into a vehicle group and a test compound group (each having n=10). Two hours before the operation for performing a test, in the test compound group, a 0.5% aqueous sodium carboxymethylcellulose (CMC) solution obtained by suspending a test compound in a mortar was added so that the test compound was orally administered in an amount of 0.3 mg/kg or 1 mg/kg. In the vehicle group, a 0.5% CMC aqueous solution that contained no test compound was orally administered. Two hours after oral administration, the rats in each group were anesthetized using […]., and the following operations were performed on a heat pad that had been kept at 38° C.
An incision was made on the cervical skin, and the left carotid artery was exposed in such a manner that the cervical skeletal muscle was not injured. The adhesion tissue was carefully peeled off. Silk thread was placed over the carotid artery, and filter paper was put on the backside of the carotid artery to prevent effusion and facilitate experiment operations. A semicircular tube 5 mm in length (SP 110, inside diameter: 1.5 mm, produced by Natsume Seisakusho Co., Ltd.) was placed on the filter paper, and the blood vessel was placed in the tube. The carotid artery blood flow was measured using a cuff-type Doppler blood flow meter (inside diameter: 1 mm) placed at the periphery side, and recorded on a recorder (Graphtec WR3320) via an amplifier (Nihon Kohden, RMP-6004M). After the carotid artery blood flow was confirmed, filter paper (Whatman, No. 1, 2.5 mm×4.2 mm), to which 2 μL of physiological saline comprising 35% (w/w) ferric chloride was added dropwise, was wrapped around the origin of the carotid artery (the filter paper was positioned so that the length in the blood vessel circumferential direction was 4.2 mm). […]

PAI-1 [2] = target: T1, PAI-1 (Homo sapiens, UniProt P05121); experiment: biochemical; conditions: read-out: PAI-1 activity %
T1 sequence (P05121 24-402): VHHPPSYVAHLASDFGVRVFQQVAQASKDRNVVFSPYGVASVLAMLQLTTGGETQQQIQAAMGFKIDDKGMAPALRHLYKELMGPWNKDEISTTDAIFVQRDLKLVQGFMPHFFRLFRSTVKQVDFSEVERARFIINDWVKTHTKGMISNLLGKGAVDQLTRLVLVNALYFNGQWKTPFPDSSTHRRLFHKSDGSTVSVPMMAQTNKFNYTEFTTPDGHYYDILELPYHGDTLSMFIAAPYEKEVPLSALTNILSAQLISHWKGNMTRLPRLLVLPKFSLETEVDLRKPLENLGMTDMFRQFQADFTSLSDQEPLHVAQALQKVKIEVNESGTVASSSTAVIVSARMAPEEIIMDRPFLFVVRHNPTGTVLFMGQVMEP
Experimental: The final mixture contained 50 mM Tris-HCl (pH 8), 150 mM NaCl, 1% DMSO, 0.1% PEG-6000, 0.2 mM CHAPS, 5 nMPAI-1, 2 nM t-PA, 0.2 mM Spectrozyme t-PA synthetic substrate, and the compound (10 μM or 2.5 μM).

PAI-1 [3] = target: T1, PAI-1; experiment: Reference Test Example (2): evaluation of fibrinolytic action (fibrin plate, PAI-1 + t-PA); type: biochemical; set-up: purchased Molecular Innovations, Inc. (USA); conditions: mixture of PAI-1, t-PA and test compound on fibrin plate, 18 hours, lysis area
Experimental: The fibrinolytic action of Compounds a and b were evaluated in accordance with the document (Matsuo, O. et al., Haemostasis, 16, 43-50 (1986)).
Specifically, an aqueous solution (containing 25 mM barbital-sodium, 50 mM NaCl, and 25 mM CaCl2) containing a concentration of 1.5 mg/mL of fibrinogen (produced by Organon Teknica) was added, on a 9 cm-plate, to thrombin dissolved in 0.2 mL of physiological saline (10NIH U/mL: produced by Mochida Pharmaceutical Co., Ltd.), and the mixture was allowed to stand at room temperature for 2 hours. Using this mixture, fibrinolysis assay was conducted.
Namely, a mixture of PAI-1, t-PA, and a test compound was added dropwise to the plate and incubated at room temperature for 18 hours. Then, fibrinolysis due to plasminogen activation was measured from the lysis area on the plate.

PAI-1 [4] = target: T1, PAI-1; experiment: Reference Test Example (1): measurement of PAI-1 inhibitory activity (S-2288), comparison with tiplaxtinin; type: biochemical; set-up: purchased Molecular Innovations, Inc. (USA); conditions: concentrations of 35 μM and 50 μM (FIG. 2)
Experimental: The final mixture contained 100 mM Tris-HCl (pH 8), 30 mM NaCl, 1% DMSO, 0.1% Tween 80, 67 nM PAI-1, 9.8 nM t-PA, 1 mM S-2288, and test compound a or b (20, 35, or 50 μM).
[…] P-nitroaniline removed from the chromogenic substrate (S-2288) by t-PA action was measured using a spectrophotometer at an absorbance of 405 nm at 5-minute intervals for 30 minutes.
Comparative tests were carried out in the same manner using, in place of the above test compounds, a compound (tiplaxtinin) of the formula below that is used as an antithrombotic drug in US clinical trials (concentration: 20, 35, and 50 μM).
FIGS. 2 (A), (B), and (C) show PAI-1 activity (%) when compound a (concentrations: 20, 35, and 50 μM), compound b (concentrations: 20, 35, and 50 μM), and tiplaxtinin (comparative compound) (concentrations: 20, 35, and 50 μM) were added, respectively. The results reveal that compounds a and b had higher PAI-1 activity inhibitory action at concentrations of 35 μM and 50 μM than tiplaxtinin (comparative compound) (PAI-1 inhibitory activity).

[5] = test system: mouse model with pulmonary fibrosis artificially induced by bleomycin; experiment: Reference Test Example (3): effects on bleomycin-induced pulmonary fibrosis; type: in vivo; conditions: bleomycin mice, 200 mg/kg p.o. twice/day for 14 days
Experimental: A C57BL/6 mouse (male, body weight: 19 to 21 g) was intraperitoneally anesthetized with pentobarbital, and an incision was made on the cervical organ. Ten mice were used as controls. Bleomycin (produced by Nippon Kayaku Co., Ltd.) (1.5 U/kg) lysed in physiological saline was endotracheally administered to each of the control mice (n=10) twice a day for 14 days. On the other hand, the test mice were subjected to forcible oral administration of compound b (200 mg/kg), suspended in a 0.5% carboxymethyl cellulose aqueous solution, twice a day for 14 days, in addition to the above endotracheal administration. Then, the lung tissues taken from these control mice and test mice were analyzed, and further assayed for hydroxyproline level. The hydroxyproline level in the lung tissues was measured as the hydrolysate level of the lung tissues, according to the method of Kivirikko et al. (Anal. Biochem. 19, 249-255 (1967)). The level (severity) of pulmonary fibrosis was scored from 0 to 8, based on the method of Ashcort et al. (J. Clin. Pathol. 41, 467-470 (1988)). Further, the control mice and the test mice were assayed for plasma PAI-1 activity (ng/mL).

| SMILES | initial occlusion time (antithrombotic effect) [1] | activity at 2.5 µM (PAI-1 [2]) | activity at 10 µM (PAI-1 [2]) | other results |
| --- | --- | --- | --- | --- |
| O=C(Nc1ccc(Cl)cc1C(=O)O)c1cccc(-c2ccccc2)c1 [Example 4, 2-[(biphenyl-3-ylcarbonyl)amino]-5-chlorobenzoic acid] | significantly prolonged |  |  |  |
| O=C(COc1cccc(-c2ccoc2)c1)Nc1ccc(Cl)cc1C(=O)O [Example 13, 5-chloro-2-({[3-(furan-3-yl)phenoxy]acetyl}amino)benzoic acid] | significantly prolonged |  |  |  |
| CC(C(=O)Nc1ccc(Cl)cc1C(=O)O)(c1ccccc1)c1ccccc1 [Example 39, 5-chloro-2-[(2,2-diphenylpropanoyl)amino]benzoic acid] |  | 88.6% | 22.1% |  |
| O=C(COc1cccc(-c2ccccc2)c1)Nc1ccc(-c2ccccc2)cc1C(=O)O [Example 45, 4-{[(biphenyl-3-yloxy)acetyl]amino}biphenyl-3-carboxylic acid] |  | 76.9% | 0.9% |  |
| O=C(COc1ccc(-c2ccccc2)cc1)Nc1ccc(-c2ccoc2)cc1C(=O)O [Example 46, 2-{[(biphenyl-4-yloxy)acetyl]amino}-5-(furan-3-yl)benzoic acid] |  | 69.9% | 0.4% |  |
| O=C(Nc1ccc(Cl)cc1C(=O)O)c1cccc(C2=CCCCC2)c1 [Example 79, 5-chloro-2-({[3-(cyclohex-1-en-1-yl)phenyl]carbonyl}amino)benzoic acid] | significantly prolonged |  |  |  |
| CCC(CC(=O)Nc1scc(-c2ccccc2)c1C(=O)O)C(=O)Nc1scc(-c2ccccc2)c1C(=O)O (stereo not shown) [compound a, 2-[3-(3′-Carboxy-4′-phenylthiophen-2′-ylcarbamoyl)-pentanoylamino]-4-phenylthiophen-3-carboxylic acid] |  |  |  | fibrinolytic action (PAI-1 [3]): inhibit the suppression of fibrinolysis caused by PAI-1; PAI-1 activity inhibitory action compared with tiplaxtinin (PAI-1 [4]): higher |
| CCC(CC(=O)Nc1scc(-c2cccs2)c1C(=O)O)C(=O)Nc1scc(-c2cccs2)c1C(=O)O (stereo not shown) [compound b, 2-[3-(3′-carboxy-4′-thienylthiophen-2′-ylcarbamoyl)-pentanoylamino]-4-thienylthiophen-3-carboxylic acid] |  |  |  | fibrinolytic action (PAI-1 [3]): inhibit the suppression of fibrinolysis caused by PAI-1; Hydroxyproline level in the lung tissues ([5]; n=10, mean±SE): 204.2 ± 9.5^b μg/lung; Plasma PAI-1 activity ([5]; n=10, mean±SE): 1.2 ± 0.1^b ng/mL; fibrosis score ([5]; scored from 0 to 8, bleomycin alone 4.7±0.17): 2.9±0.42; PAI-1 activity inhibitory action compared with tiplaxtinin (PAI-1 [4]): higher |
